Results published in patent publication US8324246B2, “Indol carboxylic acid bispyridyl carboxamide derivatives, pharmaceutically acceptable salt thereof, preparation method and composition containing the same as an active ingredient” (Korea Research Institute of Chemical Technology, priority 2008, dated 2012).
Like-named read-outs stand apart in the source and are kept apart here.

Assays:
5-HT7 = 5-HT7 (Homo sapiens, UniProt P34969); assay: Receptor selectivity binding, 5-HT7; settings: Table 3
Experimental: (§1) For their high binding affinities for 5-HT2c, compounds in Examples 14 to 18, 20, and 22 or in Comparative Example 1 were used for the experiment with reaction mixtures. Except that CNS receptors such as 5-HT1a, 5-HT2a, 5-HT7, D2, D3 or D4 other than 5-HT2c were used as a receptor, IC50 values (nM) were measured in the same manner as in Experimental Example 1.

D3 = D3 (Homo sapiens, UniProt P35462); assay: Receptor selectivity binding, D3; settings: Table 3
Experimental: as §1

D4 = molecular target: T1, D4 (Homo sapiens, UniProt P21917); assay: Receptor selectivity binding, D4; settings: Table 3
T1 sequence (P21917 1-419): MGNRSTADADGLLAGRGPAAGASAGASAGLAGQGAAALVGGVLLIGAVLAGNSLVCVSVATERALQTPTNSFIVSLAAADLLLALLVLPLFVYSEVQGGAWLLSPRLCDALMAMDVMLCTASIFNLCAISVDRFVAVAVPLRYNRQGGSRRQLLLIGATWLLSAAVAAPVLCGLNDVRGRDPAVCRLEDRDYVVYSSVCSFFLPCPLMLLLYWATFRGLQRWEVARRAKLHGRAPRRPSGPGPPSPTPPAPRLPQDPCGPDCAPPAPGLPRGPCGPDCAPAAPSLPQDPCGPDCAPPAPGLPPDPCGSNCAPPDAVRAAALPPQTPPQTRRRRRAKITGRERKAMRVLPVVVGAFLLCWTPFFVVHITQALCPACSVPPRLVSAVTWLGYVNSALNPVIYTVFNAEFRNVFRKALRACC
Experimental: as §1

5-HT6 = 5-HT6 (Homo sapiens, UniProt P50406); assay: Receptor selectivity binding, 5-HT6; settings: Table 3
Experimental: as §1

D2 = D2 (Homo sapiens, UniProt P14416); assay: Receptor selectivity binding, D2; settings: Table 3
Experimental: as §1

5-HT1a = molecular target: T2, 5-HT1a (Homo sapiens, UniProt P08908); assay: Receptor selectivity binding, 5-HT1a; settings: Table 3
T2 sequence (P08908 1-422): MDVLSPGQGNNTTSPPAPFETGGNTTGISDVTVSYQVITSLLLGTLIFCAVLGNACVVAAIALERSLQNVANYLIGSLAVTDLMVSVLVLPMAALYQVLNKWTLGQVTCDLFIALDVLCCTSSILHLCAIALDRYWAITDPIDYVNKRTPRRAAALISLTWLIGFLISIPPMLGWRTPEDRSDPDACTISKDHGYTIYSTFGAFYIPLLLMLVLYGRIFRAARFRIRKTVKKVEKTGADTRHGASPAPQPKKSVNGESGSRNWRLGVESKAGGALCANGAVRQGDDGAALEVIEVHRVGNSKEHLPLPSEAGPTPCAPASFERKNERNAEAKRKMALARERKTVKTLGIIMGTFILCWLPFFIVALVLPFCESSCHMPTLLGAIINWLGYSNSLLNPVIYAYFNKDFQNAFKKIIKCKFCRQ
Experimental: as §1

5-HT2a = 5-HT2a (Homo sapiens, UniProt P28223); assay: Receptor selectivity binding, 5-HT2a; settings: Table 3
Experimental: as §1

[1] = molecular target: T3, human gene recombinant 5-HT2c receptor expressed in CHO-K1 cell (Homo sapiens, UniProt P28335); assay: Binding affinity to the serotonin 5-HT2c receptor ([3H]mesulergine)
T3 construct: purchased Euroscreen, Belgium; host or cells: CHO-K1
T3 sequence (P28335 33-458): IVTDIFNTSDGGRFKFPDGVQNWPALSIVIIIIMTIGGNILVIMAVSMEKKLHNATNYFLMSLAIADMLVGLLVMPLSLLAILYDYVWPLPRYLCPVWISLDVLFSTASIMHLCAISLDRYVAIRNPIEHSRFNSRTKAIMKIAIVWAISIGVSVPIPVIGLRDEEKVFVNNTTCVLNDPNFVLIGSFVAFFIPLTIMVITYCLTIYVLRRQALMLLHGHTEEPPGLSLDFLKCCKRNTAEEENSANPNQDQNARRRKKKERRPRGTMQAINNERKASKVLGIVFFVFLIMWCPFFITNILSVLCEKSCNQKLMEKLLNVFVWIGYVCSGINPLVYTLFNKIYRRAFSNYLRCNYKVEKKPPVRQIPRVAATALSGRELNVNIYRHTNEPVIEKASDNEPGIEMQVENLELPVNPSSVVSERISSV
Experimental: As a receptor, a human gene recombinant 5-HT2c receptor expressed in CHO—K1 cell was purchased from Euroscreen, Belgium and used in the experiment, and as a radioactive isotope, [3H]mesulergine (Amersham Biosciences, UK).
A final volume of 0.25 ml reaction mixture was prepared by adding 50 mM Tris-HCl buffer (pH 7.7) containing one of the compounds in Examples 1-29 or Comparative Examples 1-2, 1 nM of [3H]mesulergine, 5-HT2c receptor membranes (4 D/well), 0.1% ascorbic acid and 10 µM pargyline, and incubated at 37° C. for 30 minutes. After incubation, the reaction was terminated by the rapid filtration using an Inotech harvester (Inotech) through a Wallace GF/C glass fiber filter (Wallac, Finland) which was presoaked in 1% BSA, and then washed with ice-cold 50 mM Tris-HCl buffer. The filter was covered with MeltiLex, sealed in a sample bag followed by drying in the oven, and counted by MicroBeta Plus (Wallac). Non-specific binding was determined in the presence of […] Mianserin. Three repeating experiments were carried out with 7-8 concentrations of the compound in Examples 1-29 or the compound in comparative examples 1-2, run in duplicate tubes, and isotherms from the three assays were calculated by a nonlinear regression analysis (GraphPad Prism Program, San Diego, USA) to yield IC50 values.

human 5-HT2c receptors = molecular target: T4, human 5-HT2c receptors (Homo sapiens, UniProt P28335); settings: for Inhibition rate of serotonin (5-HT)-induced [35S]GTPS increase: 30 µM serotonin
T4 sequence (P28335 33-458): T3 sequence (P28335 33-458)

[2] = [3H]mesulergine 1 nM, 37° C. 30 minutes, Table 2, read-out: IC50

Sequence of D3 (P35462 whole entry): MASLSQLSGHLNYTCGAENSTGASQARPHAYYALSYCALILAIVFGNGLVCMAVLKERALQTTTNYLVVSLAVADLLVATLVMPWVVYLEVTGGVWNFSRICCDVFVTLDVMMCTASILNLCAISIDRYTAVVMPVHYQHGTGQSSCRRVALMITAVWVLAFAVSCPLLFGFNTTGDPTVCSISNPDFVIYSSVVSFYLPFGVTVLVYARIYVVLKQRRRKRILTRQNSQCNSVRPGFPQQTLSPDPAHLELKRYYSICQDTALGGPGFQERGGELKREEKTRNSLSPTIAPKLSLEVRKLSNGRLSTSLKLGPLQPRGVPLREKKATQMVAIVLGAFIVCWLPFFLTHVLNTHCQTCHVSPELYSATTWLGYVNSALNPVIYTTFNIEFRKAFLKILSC
Sequence of D2 (P14416 whole entry): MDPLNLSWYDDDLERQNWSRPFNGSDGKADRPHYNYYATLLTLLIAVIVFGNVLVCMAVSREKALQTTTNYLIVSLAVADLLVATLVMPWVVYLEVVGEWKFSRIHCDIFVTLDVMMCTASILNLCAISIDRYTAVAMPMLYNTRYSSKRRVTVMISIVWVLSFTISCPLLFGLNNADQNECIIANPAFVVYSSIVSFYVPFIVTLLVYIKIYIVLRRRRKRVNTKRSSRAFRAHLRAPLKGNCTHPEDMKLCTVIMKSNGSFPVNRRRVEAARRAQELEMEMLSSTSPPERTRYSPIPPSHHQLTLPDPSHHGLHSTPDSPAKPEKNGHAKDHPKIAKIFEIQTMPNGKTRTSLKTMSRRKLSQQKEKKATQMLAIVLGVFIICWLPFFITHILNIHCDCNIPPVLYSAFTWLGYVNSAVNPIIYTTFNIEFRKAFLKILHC
Sequence of 5-HT2a (P28223 whole entry, species assumed): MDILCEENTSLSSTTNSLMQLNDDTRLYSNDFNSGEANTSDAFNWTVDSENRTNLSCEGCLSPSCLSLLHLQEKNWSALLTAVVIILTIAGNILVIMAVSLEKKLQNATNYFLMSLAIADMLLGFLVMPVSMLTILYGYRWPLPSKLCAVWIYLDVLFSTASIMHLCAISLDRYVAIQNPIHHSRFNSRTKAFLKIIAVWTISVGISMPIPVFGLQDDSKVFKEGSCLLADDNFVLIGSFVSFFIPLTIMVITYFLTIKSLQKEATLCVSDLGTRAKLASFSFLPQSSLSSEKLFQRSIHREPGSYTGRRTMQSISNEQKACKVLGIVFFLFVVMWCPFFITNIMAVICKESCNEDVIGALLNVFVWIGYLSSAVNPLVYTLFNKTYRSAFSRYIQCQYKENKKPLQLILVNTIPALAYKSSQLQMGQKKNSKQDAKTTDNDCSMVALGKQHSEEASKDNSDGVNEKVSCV
Sequence of 5-HT6 (P50406 whole entry, species assumed): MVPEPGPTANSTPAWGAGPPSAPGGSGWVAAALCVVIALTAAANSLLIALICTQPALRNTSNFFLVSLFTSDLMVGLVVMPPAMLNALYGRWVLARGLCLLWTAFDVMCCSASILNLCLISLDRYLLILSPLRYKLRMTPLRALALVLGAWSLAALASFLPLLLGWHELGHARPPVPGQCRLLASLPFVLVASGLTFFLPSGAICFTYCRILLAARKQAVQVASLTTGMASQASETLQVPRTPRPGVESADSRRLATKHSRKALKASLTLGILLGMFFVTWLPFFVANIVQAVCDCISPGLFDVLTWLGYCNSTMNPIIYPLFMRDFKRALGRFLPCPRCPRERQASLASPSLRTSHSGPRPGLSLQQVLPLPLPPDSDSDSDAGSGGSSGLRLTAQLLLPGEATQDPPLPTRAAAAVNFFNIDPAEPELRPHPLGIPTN
Sequence of 5-HT7 (P34969 whole entry, species assumed): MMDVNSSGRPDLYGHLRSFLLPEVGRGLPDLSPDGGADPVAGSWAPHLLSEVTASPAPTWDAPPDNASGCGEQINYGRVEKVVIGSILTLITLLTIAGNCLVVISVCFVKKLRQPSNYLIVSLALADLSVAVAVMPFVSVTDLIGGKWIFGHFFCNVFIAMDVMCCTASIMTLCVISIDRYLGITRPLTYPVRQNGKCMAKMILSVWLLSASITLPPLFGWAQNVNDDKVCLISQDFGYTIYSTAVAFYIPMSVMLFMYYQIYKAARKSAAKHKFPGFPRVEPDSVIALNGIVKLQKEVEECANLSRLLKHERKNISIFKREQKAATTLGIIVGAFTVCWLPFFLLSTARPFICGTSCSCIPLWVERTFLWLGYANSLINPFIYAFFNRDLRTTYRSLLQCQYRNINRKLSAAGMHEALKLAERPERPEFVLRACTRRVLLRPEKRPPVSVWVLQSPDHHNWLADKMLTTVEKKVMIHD

SMILES | IC50 (5-HT7) [nM] | IC50 (D3) [nM] | IC50 (D4) [nM] | IC50 (5-HT6) [nM] | IC50 (D2) [nM] | IC50 (5-HT1a) [nM] | IC50 (5-HT2a) [nM] | IC50 ([1]; Table 3, read-out: IC50 5-HT2c) [nM] | IC50 [1, 2] [nM] | Inhibition rate of serotonin (5-HT)-induced [35S]GTPS increase (human 5-HT2c receptors; concentration 0.001 µM) [%] | Inhibition rate of serotonin (5-HT)-induced [35S]GTPS increase (human 5-HT2c receptors; concentration 0.01 µM) [%] | Inhibition rate of serotonin (5-HT)-induced [35S]GTPS increase (human 5-HT2c receptors; concentration 0.1 µM) [%] | Inhibition rate of serotonin (5-HT)-induced [35S]GTPS increase (human 5-HT2c receptors; concentration 1 µM) [%] | Inhibition rate of serotonin (5-HT)-induced [35S]GTPS increase (human 5-HT2c receptors; concentration 10 µM) [%] | IC50 (human 5-HT2c receptors; read-out: IC50, antagonist activity on serotonin (5-HT)-induced GTP level increase, 30 M serotonin) [nM] | inhibition of the 5-HT-induced increase in [35S]GTPS concentration level (human 5-HT2c receptors; control 5-HT2c antagonist)
COc1ccc2[nH]cc(C(=O)Nc3ccc(Oc4cccnc4C)nc3)c2c1 [Example 15, 5-methoxy-1H-indole-3-carboxylic acid[6-(2-methyl-pyridine-3-yloxy)-pyridine-3-yl]-amide] | > 10000 | > 10000 | > 10000 | > 10000 | > 10000 | > 10000 | > 10000 | 10.7 | 10.7 | – | – | – | – | – | – | –
O=C(Nc1ccc(Oc2cccnc2Cl)nc1)c1c[nH]c2ccccc12 [Example 22, 1H-indole-3-carboxylic acid[6-(2-chloro-pyridine-3-yloxy)-pyridine-3-yl]-amide] | > 10000 | > 10000 | > 1000 | > 10000 | > 10000 | > 10000 | > 1000 | 0.5 | 0.5 | 0 | 1 | 9 | 67 | 100 | 590 | –
Cc1cc2c(cc1Cl)N(C(=O)Nc1ccc(Oc3cccnc3C)nc1)CC2 [SB242084, reference compound] | – | – | – | – | – | – | – | – | – | – | – | – | – | – | – | inhibited
Cc1cc2c(cc1C(F)(F)F)N(C(=O)Nc1ccc(Oc3cccnc3C)nc1)CC2 [Comparative Example 1, SB-243213, reference compound] | > 1000 | > 1000 | > 10000 | 667 | > 1000 | > 1000 | 32.4 | 0.7 | 0.7 | – | – | – | – | – | – | –
O=C(Nc1ccc(OCc2ccccn2)nc1)c1c[nH]c2ccccc12 [Example 20, 1H-indole-3-carboxylic acid[6-(pyridine-2-ylmethoxy)-pyridine-3-yl]-amide] | > 10000 | > 10000 | > 10000 | > 1000 | > 10000 | > 10000 | > 10000 | 5.9 | 5.9 | – | – | – | – | – | – | –
Cc1ccc2[nH]cc(C(=O)Nc3ccc(Oc4cccnc4C)nc3)c2c1 [Example 14, 5-methyl-1H-indole-3-carboxylic acid[6-(2-methyl-pyridine-3-yloxy)-pyridine-3-yl]-amide] | > 10000 | > 10000 | > 10000 | > 10000 | > 10000 | > 10000 | > 1000 | 4.5 | 4.5 | – | – | – | – | – | – | –
Cc1ncccc1Oc1ccc(NC(=O)c2c[nH]c3c(C)cccc23)cn1 [Example 17, 7-methyl-1H-indole-3-carboxylic acid[6-(2-methyl-pyridine-3-yloxy)-pyridine-3-yl]-amide] | > 10000 | > 10000 | > 10000 | > 10000 | > 10000 | > 10000 | > 10000 | 8.2 | 8.2 | – | – | – | – | – | – | –
